Results reported in ChEMBL document CHEMBL5532700, “Inhibition of bacterial RNA polymerase function and protein-protein interactions: a promising approach for next-generation antibacterial therapeutics” (RSC Med Chem, 2024).
Values after ≈ are worked out from the molar mass of the structure shown.

How the values were obtained:
Bacteria = test: Inhibition of bacterial RNA polymerase holoenzyme formation assessed as inhibition of interaction between beta subunit CH domain and sigma factor at 500 uM relative to control
[1] = Inhibition of Bacillus subtilis N-terminal SmBiT NanoLuc/C-terminal LgBiT NanoLuc fused full-length SigA tagged RNA polymerase beta subunit CH-domain (220 to 315 residues)/sigma factor (unknown origin) protein-protein interaction by split luciferase assay
Streptococcus pneumoniae [2] = test: Antibacterial activity against Streptococcus pneumoniae assessed as reduction in bacterial growth incubated for 16 to 20 hrs by broth microdilution method; assay type: functional; conditions: time 16-20 hrs
Staphylococcus aureus [3] = test: Antibacterial activity against Staphylococcus aureus; assay type: functional
Staphylococcus aureus [4] = test: Antibacterial activity against methicillin-resistant Staphylococcus aureus; assay type: functional
Staphylococcus aureus [5] = test: Antibacterial activity against vancomycin-resistant Staphylococcus aureus; assay type: functional
Bacillus subtilis [6] = test: Antibacterial activity against Bacillus subtilis EU168 measured after 18 hrs; assay type: functional
Staphylococcus aureus [7] = test: Antibacterial activity against community-acquired methicillin-resistant Staphylococcus aureus USA300 measured after 18 hrs; assay type: functional
Bacillus subtilis [8] = test: Antibacterial activity against Bacillus subtilis assessed as inhibition of bacterial growth at 200 uM incubated for 10 sec under shaking condition relative to control; assay type: functional; conditions: 10 s
Escherichia coli = test: Antibacterial activity against Escherichia coli assessed as inhibition of bacterial growth at 200 uM incubated for 10 sec under shaking condition relative to control; assay type: functional; conditions: 10 s
[9] = Inhibition of poly(C) dependent Escherichia coli DW319 Rho ATPase activity
Neisseria gonorrhoeae = test: Antibacterial activity against Neisseria gonorrhoeae; assay type: functional
Moraxella catarrhalis = test: Antibacterial activity against Moraxella catarrhalis; assay type: functional
[10] = Inhibition of Escherichia coli RNA polymerase/sigma factor 70 (unknown origin) protein-protein interaction incubated for 30 mins by ELISA
Streptococcus pneumoniae [11] = test: Antibacterial activity against Streptococcus pneumoniae CIP103566 measured after 24 hrs by broth microdilution method; assay type: functional
Bacillus anthracis = test: Antibacterial activity against Bacillus anthracis 9131 measured after 24 hrs by broth microdilution method; assay type: functional
Bacteroides sp. = test: Antibacterial activity against Bacteroides sp. measured after 24 hrs by broth microdilution method; assay type: functional
[12] = Inhibition of NusB-NusE (unknown origin) protein protein interaction; set-up: species or system Bacteria
[13] = Inhibition of ribo(C)10 stimulated Escherichia coli AR120 Rho ATPase activity preincubated for 2 mins in presence of ribo(C)10 followed by ATP addition and measured for 90 sec by [gamma-32P]ATP based liquid scintillation counting method
[14] = Inhibition of ribo(C)10 stimulated Escherichia coli AR120 Rho ATPase activity preincubated for 2 mins in absence of ribo(C)10 followed by ATP addition and measured for 90 sec by [gamma-32P]ATP based liquid scintillation counting method
[15] = Binding affinity to NusB (unknown origin) assessed as dissociation constant; set-up: species or system Bacteria

Structure (SMILES): Nc1ccccc1Sc1ccc(C(=O)c2ccccc2C(=O)O)cc1[N+](=O)[O-]
- inhibition (Bacteria): 80%
- IC50 [1]: 6.4 µM
- MIC (Streptococcus pneumoniae [2]): 256 µg/mL (≈ 649 µM)

Structure (SMILES): O=C(O)c1ccccc1C(=O)c1ccc(Sc2ccc(Cl)c(Cl)c2)c([N+](=O)[O-])c1
- MIC (Streptococcus pneumoniae [2]): 8 µg/mL (≈ 17.8 µM)

Structure (SMILES): O=[N+]([O-])c1ccc(O)c(/C=N/c2cccc(Cl)c2)c1
- MIC (Staphylococcus aureus [3]): 2 µg/mL (≈ 7.23 µM)
- MIC (Staphylococcus aureus [4]): 0.25 µg/mL (≈ 0.904 µM)
- MIC (Staphylococcus aureus [5]): 0.25 µg/mL (≈ 0.904 µM)

Structure (SMILES): C[C@]12CC[C@@H](O)CC1CCC1C2CC[C@](C)(C(=O)O)C1/C=C1/Nc2ccccc2C1=O (some centres undefined)
- MIC (Bacillus subtilis [6]): ≤ 50 µM
- MIC (Staphylococcus aureus [7]): ~100 µM (≈ 42.4 µg/mL)
- inhibition (Bacteria): 80%

Structure (SMILES): N=C(N)N/N=C/c1ccc(OC/C=C\COc2ccc(/C=N/NC(=N)N)cc2)cc1
- inhibition at 200 µM (Bacillus subtilis [8]): 100%
- inhibition at 200 µM (Escherichia coli): 100%

Structure (SMILES): CC(C)(C)c1ccccc1NCc1cc([N+](=O)[O-])ccc1O
- MIC (Staphylococcus aureus [3]): 1 µg/mL (≈ 3.33 µM)
- MIC (Staphylococcus aureus [4]): 0.25 µg/mL (≈ 0.832 µM)
- MIC (Staphylococcus aureus [5]): 0.25 µg/mL (≈ 0.832 µM)

Structure (SMILES): O=C1N(Cc2ccccc2)CCC1(CCN1CCC(Nc2nc3ccccc3n2Cc2ccc(F)cc2)CC1)Cc1ccccc1 (centres undefined)
- IC50 [9]: 25 µM
- MIC (Neisseria gonorrhoeae): 2.5 µM (≈ 1.54 µg/mL)
- MIC (Moraxella catarrhalis): 2.5 µM (≈ 1.54 µg/mL)

Structure (SMILES): C=CCN1C(=O)/C(=C\c2ccc(-c3cccc(C(=O)O)c3)o2)SC1=S
- IC50 [10]: 2 µM
- MIC (Streptococcus pneumoniae [11]): 2 µg/mL (≈ 5.38 µM)
- MIC (Bacillus anthracis): 0.1 µg/mL (≈ 0.269 µM)
- MIC (Bacteroides sp.): 1 µg/mL (≈ 2.69 µM)

Structure (SMILES): CN1C(=O)/C(=C\c2ccc(-c3cccc(C(=O)O)c3)o2)SC1=S
- IC50 [10]: 3 µM

Structure (SMILES): C#Cc1cccc(NCc2cc([N+](=O)[O-])cc(Br)c2O)c1
- MIC (Staphylococcus aureus [4]): 0.25 µg/mL (≈ 0.72 µM)
- MIC (Staphylococcus aureus [5]): 0.25 µg/mL (≈ 0.72 µM)

Structure (SMILES): COc1cccc(/C=C/c2cc(O)ccc2[N+](=O)[O-])c1
- MIC (Staphylococcus aureus [3]): 2 µg/mL (≈ 7.37 µM)
- MIC (Staphylococcus aureus [4]): 0.25 µg/mL (≈ 0.922 µM)
- MIC (Staphylococcus aureus [5]): 0.25 µg/mL (≈ 0.922 µM)

Structure (SMILES): CCNC(=O)Nc1ccc(OCCCCOc2ccc(NC(=O)NCC)cc2)cc1
- IC50 [12]: 19.8 µM

Structure (SMILES): C=CCN1C(=O)/C(=C/c2cc(C)n(-c3cccc(C(=O)O)c3)c2C)SC1=S
- IC50 [10]: 1.8 µM

Structure (SMILES): C=C1CCO[C@]2([C@@H](O)[C@@](C)(O)CO)NC(=O)[C@@]1(O)NC2=O [BICOZAMYCIN]
- Ki [13]: 2.8 µM
- Ki [14]: 26 µM

Structure (SMILES): COc1ccc(-c2cc(-c3ccc(OC)c(OC)c3)nc(NS(=O)(=O)c3ccc(NC(C)=O)cc3)n2)c(OC)c1
- IC50 [12]: 6.1 µM

Structure (SMILES): C#Cc1cccc(/N=C/c2cc([N+](=O)[O-])ccc2O)c1
- IC50 [12]: ~35 µM
- Kd [15]: ~1.5 µM
- MIC (Staphylococcus aureus [3]): 8 µg/mL (≈ 30 µM)

Structure (SMILES): O=[N+]([O-])c1ccc(O)c(CNc2ccccc2C#Cc2ccccc2)c1
- MIC (Staphylococcus aureus [3]): 0.25 µg/mL (≈ 0.726 µM)
- MIC (Staphylococcus aureus [4]): 0.25 µg/mL (≈ 0.726 µM)
- MIC (Staphylococcus aureus [5]): 0.25 µg/mL (≈ 0.726 µM)
